Assay results as given in patent US9272026B2, “HLA-A*1101-restricted WT1 peptide and pharmaceutical composition comprising the same” (International Institute of Cancer Immunology, Inc., priority 2006, dated 2016).
Like-named read-outs stand apart in the source and are kept apart here. No end group written: not given here.

Tests used:
B-LCLs expressing WT1 [1] = assay: 51Cr release assay: cytotoxic activity of CTL against cell expressing WT1 endogenously; details: B-LCL into which a human WT1 gene is introduced; FIGS. 1, 2, 4, 5 and 7
Description: (§1) The PBMCs were then seeded to a 24-well cell culture plate at the density of about 1×10^7 in RPMI 1640 medium containing 10% FCS, and a culture supernatant of B95-8 cells (cells producing EB virus) were added. They were cultured at 37° C. with 5% CO2 for about 1 month. B-LCL cells transformed with EB virus, which are B-cell tumor cells, were obtained. […] B-LCL cells were pulsed by incubating them with 20 μg/ml of WT1251, WT1279, WT1312, WT1313, WT1338, WT1378, WT1386, WT1415 or WT1436 for 2 hours, and irradiated with 80 Gy of radiation. The resulting B-LCL cells (hereinafter referred to as B-LCL cells pulsed with a WT1 peptide) were used as antigen-presenting cells for the following experiments.
(§2) 3×10^6 of autologous PBMCs were cultured in a 24-well cell culture plate in complete medium (45% RPMI, 45% AMI-V medium and 10% human AB serum) containing 20 μg/ml of WT1251, WT1279, WT1312, WT1313, WT1338, WT1378, WT1386, WT1415 or WT1436 at 37° C. with 5% CO2 for 1 week to obtain responding cells. 2×10^6 of the resulting responding cells were cocultured with 1×10^6 of the B-LCL cells pulsed with the same WT1 peptide in complete medium for 1 week (first stimulation). The PBMCs were coculutured with the B-LCL cells pulsed with the WT1 peptide three more times (second to fourth stimulations) under the conditions under which 20 IU/ml (final concentration) of IL2 was added as follows: second stimulation: two times every other day from 3 days after the initiation of stimulation; third and fourth stimulations: three times at intervals of one day from the day after the initiation of stimulation. The resulting cells were concentrated using Negative Selection Columns Gravity Feed Kit (StemSp) so that the ratio of CD8-positive T cells became about 80%, and cocultured with the B-LCL cells pulsed with the WT1 peptide (fifth stimulation). CD8-positive T cells (CTLs) obtained 5 days after the final stimulation were used for measurement of the cytotoxic activity.
(§3) The cytotoxic activity of CTLs was measured using ^51Cr release assay. CTL cells (hereinafter referred to as effector cells) were mixed at the ratio (E/T ration) of 1:1 to 30:1 in 200 μl of medium with target cells into which ^51Cr had been incorporated, and cultured in a 96-well cell culture plate at 37° C. with 5% CO2 for 4 hours. B-LCL cells pulsed with the same WT1 peptide as that used for induction of CTLs (BLCL-Ps), and B-LCL cells without pulsing with a WT1 peptide (BLCL-NPs) were used as target cells. After the culture, the supernatants were collected by centrifugation. The amounts of ^51Cr released into the supernatants were measured using a liquid scintillation counter. The cytotoxic activity (%) was determined using the following formula: (^51Cr release in supernatant of sample−Spontaneous ^51Cr release)/(Maximum ^51Cr release−Spontaneous ^51Cr release)×100 wherein Spontaneous ^51Cr release is ^51Cr release observed when the target cells into which ^51Cr had been incorporated were cultured alone under the same condition, and Maximum ^51Cr release is ^51Cr release observed when the target cells into which ^51Cr had been incorporated were completely lysed using 1% Triton X-100.
(§4) The cytotoxic activity of CTLs induced with WT1251, WT1279, WT1313, WT1338 or WT1386 against B-LCLs expressing WT1 was determined using the method described above.

[2] = system: B-LCL cells pulsed with the same WT1 peptide (BLCL-Ps); assay: 51Cr release assay: cytotoxic activity of CTLs induced with WT1 peptide against peptide-pulsed B-LCL cells; details: CTLs induced with 20 μg/ml peptide; E/T ratio 1:1 to 30:1; 4 hours; FIGS. 1-9
Description: The PBMCs were then seeded to a 24-well cell culture plate at the density of about 1×10^7 in RPMI 1640 medium containing 10% FCS, and a culture supernatant of B95-8 cells (cells producing EB virus) were added. They were cultured at 37° C. with 5% CO2 for about 1 month. B-LCL cells transformed with EB virus, which are B-cell tumor cells, were obtained. […] B-LCL cells were pulsed by incubating them with 20 μg/ml of WT1251, WT1279, WT1312, WT1313, WT1338, WT1378, WT1386, WT1415 or WT1436 for 2 hours, and irradiated with 80 Gy of radiation. The resulting B-LCL cells (hereinafter referred to as B-LCL cells pulsed with a WT1 peptide) were used as antigen-presenting cells for the following experiments. […]
The cytotoxic activity of CTLs was measured using ^51Cr release assay. […] The amounts of ^51Cr released into the supernatants were measured using a liquid scintillation counter. The cytotoxic activity (%) was determined using the following formula: (^51Cr release in supernatant of sample−Spontaneous ^51Cr release)/(Maximum ^51Cr release−Spontaneous ^51Cr release)×100 wherein Spontaneous ^51Cr release is ^51Cr release observed when the target cells into which ^51Cr had been incorporated were cultured alone under the same condition, and Maximum ^51Cr release is ^51Cr release observed when the target cells into which ^51Cr had been incorporated were completely lysed using 1% Triton X-100.

human cells = details: HLA-A*2402; Non-patent Document 12; cited from earlier work
B-LCLs expressing WT1 [3] = system: B-LCLs expressing WT1
Description: as §1, §2, §3, §4

[4] = system: human peripheral blood mononuclear cells having HLA-A*0201; details: human PBMCs having HLA-A*0201; Non-patent Document 11; cited from earlier work
[5] = system: PBMCs from HLA-A*1101-positive healthy donors; assay: Induction of CTL by WT1 peptide dimer and related peptides using PBMCs from HLA-A*1101-positive healthy donors 1-3; format: cell-based, human; details: FIGS. 10-14
Text: After the culture, the supernatants were collected by centrifugation.
Abilities of the resulting WT1378 peptide dimer, WT1378 peptide, modified WT1378 peptide (G→I) (SEQ ID No: 11) and modified WT1378 peptide (G→V) (SEQ ID No: 12) as well as WT1379 peptide (SEQ ID No: 13, as disclosed in WO 2002/28414) to induce a CTL were examined using PBMCs from HLA-A*1101-positive healthy donors 1-3 according to the method as described above.

## AAGSSSSVK [WT1251]
B-LCLs expressing WT1 [1]
  cytotoxic activity of induced CTLs against cells expressing WT1 gene endogenously: have a cytotoxic activity against cells expressing WT1 gene endogenously
[2]
  cytotoxic activity of induced CTLs against BLCL-Ps as compared with BLCL-NPs: damage specifically BLCL-Ps

## CMTWNQMNL (listed as Homo sapiens) [WT1235, WT1 peptide that matches HLA-A*2402]
Human cells
  induction of WT1-specific CTLs: WT1-specific CTLs (TAK-1) are induced

## KTCQRKFSR [WT1386]
B-LCLs expressing WT1 [3]
  cytotoxic activity of induced CTLs against cells expressing WT1 gene endogenously: have a cytotoxic activity against cells expressing WT1 gene endogenously

## PILCGAQYR [WT1279]
B-LCLs expressing WT1 [3]
  cytotoxic activity of induced CTLs against cells expressing WT1 gene endogenously: have a cytotoxic activity against cells expressing WT1 gene endogenously

## SASETSEKR [WT1313]
B-LCLs expressing WT1 [3]
  cytotoxic activity of induced CTLs against cells expressing WT1 gene endogenously: have a cytotoxic activity against cells expressing WT1 gene endogenously

## SHLQMNSRK [WT1338]
B-LCLs expressing WT1 [3]
  cytotoxic activity of induced CTLs against cells expressing WT1 gene endogenously: have a cytotoxic activity against cells expressing WT1 gene endogenously

## SLGEQQYSV (listed as Homo sapiens) [WH187 peptide]
[4]
  induction of WT1-specific CTLs: WT1-specific CTLs are induced

## WT1379 peptide: known peptide disclosed in WO 2002/28414; differs from WT1378 peptide by one amino acid in the WT1 protein sequence (GVKPFQCKT; listed as Homo sapiens)
[5]
  ability to induce a CTL: much lower than that of WT1378 peptide
